Results reported in ChEMBL document CHEMBL1201862, “PubChem BioAssay data set” (2004).
The source made the active and inactive calls.

Columns and labels:
[1] = target: Nuclear receptor subfamily 5 group A member 2 (Homo sapiens, UniProt O00482); type: functional, cell-based;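 also: HEK293T cells transfected with LRH-1 and a StAR promoter luciferase reporter; potency for inhibitors that lower LRH-1 driven reporter light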
Steroidogenic factor 1 = Steroidogenic factor 1 (Homo sapiens, UniProt Q13285); assay: Counterscreen for inverse agonists of the liver receptor homolog-1 (LRH-1; NR5A2): Luminescence-based cell-based high throughput dose response assay to identify inverse agonists of the Steroidogenic Factor 1 Nuclear Receptor (SF1; NR5A1).; type: functional
[2] = nonselective StAR promoter luciferase inhibitors – cell-based, luminescence, luciferase reporter, counter-screen for LRH-1 inverse agonist project, dose response (AID 651969); type: functional
[3] = target: Matrix metalloproteinase-14 (Homo sapiens, UniProt P50281); assay: Dose Response confirmation of uHTS hits for a small molecule inhibitors of MT1-MMP activation in a fluorescence assay set 1.; type: functional
[4] = target: Potassium voltage-gated channel subfamily KQT member 2 (Rattus norvegicus, UniProt O88943); assay: blockers of KCNQ2 channel current – cell-based, automated electrophysiology, set II, rat KCNQ2, dose response (AID 588637); type: functional
[5] = target: Photoreceptor-specific nuclear receptor (Homo sapiens, UniProt Q9Y5X4); type: functional, cell-based;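 also: CHO-S cells with Gal4-NCOR and VP16-NR2E3 two-hybrid luciferase reporter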
[6] = target: T1, Apoptotic protease-activating factor 1 (Homo sapiens, UniProt O14727); assay: SAR analysis of small molecule Activators of Apaf-1 in a Fluorescent assay.; type: functional; details: read-out: EC50_Mean;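 also: caspase-3 cleavage of fluorogenic Rh110 DEVD substrate downstream of apoptosome activation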
T1 sequence (O14727 whole entry): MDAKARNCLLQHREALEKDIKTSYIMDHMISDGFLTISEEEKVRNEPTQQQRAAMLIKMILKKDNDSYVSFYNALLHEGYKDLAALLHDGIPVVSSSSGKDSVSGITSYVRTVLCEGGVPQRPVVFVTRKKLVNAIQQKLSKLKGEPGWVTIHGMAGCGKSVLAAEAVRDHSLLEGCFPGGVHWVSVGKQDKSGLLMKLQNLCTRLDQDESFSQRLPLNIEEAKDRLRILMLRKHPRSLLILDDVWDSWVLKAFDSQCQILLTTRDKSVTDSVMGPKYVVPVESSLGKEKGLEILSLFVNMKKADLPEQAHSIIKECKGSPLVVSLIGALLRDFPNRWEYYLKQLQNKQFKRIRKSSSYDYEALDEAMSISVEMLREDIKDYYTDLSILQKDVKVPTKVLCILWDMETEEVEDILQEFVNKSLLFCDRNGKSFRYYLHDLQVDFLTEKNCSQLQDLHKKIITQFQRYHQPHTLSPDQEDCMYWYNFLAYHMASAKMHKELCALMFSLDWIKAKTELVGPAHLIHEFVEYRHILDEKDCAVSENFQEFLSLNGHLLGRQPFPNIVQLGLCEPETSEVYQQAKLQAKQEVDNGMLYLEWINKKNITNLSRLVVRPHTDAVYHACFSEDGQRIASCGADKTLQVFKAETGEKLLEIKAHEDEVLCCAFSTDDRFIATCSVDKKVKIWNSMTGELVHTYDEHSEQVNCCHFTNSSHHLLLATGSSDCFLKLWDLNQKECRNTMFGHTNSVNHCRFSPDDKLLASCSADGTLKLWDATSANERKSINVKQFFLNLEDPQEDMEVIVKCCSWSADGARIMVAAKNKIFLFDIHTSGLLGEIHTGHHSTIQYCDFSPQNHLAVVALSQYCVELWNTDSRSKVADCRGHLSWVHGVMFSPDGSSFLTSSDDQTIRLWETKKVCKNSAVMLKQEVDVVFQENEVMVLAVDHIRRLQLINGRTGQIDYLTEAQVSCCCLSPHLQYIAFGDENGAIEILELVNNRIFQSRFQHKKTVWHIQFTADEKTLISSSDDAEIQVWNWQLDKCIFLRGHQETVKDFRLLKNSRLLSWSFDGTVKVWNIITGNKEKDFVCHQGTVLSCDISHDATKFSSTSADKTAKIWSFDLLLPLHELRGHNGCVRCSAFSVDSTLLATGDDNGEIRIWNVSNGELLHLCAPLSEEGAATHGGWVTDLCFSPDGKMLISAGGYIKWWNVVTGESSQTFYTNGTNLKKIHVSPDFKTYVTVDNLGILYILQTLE

[7] = activation of miR-122 Renilla sensor silencing – cell-based, Huh7 psiCHECK-miR122, Renilla luciferase, cherry-picked, dose response (AID 651956); type: functional;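 also: huh7 hepatoma cells stably carrying a psiCHECK-2 miR-122 sensor plasmid; renilla luciferase signal reporting endogenous miR-122 activity after 48 h compound exposure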
[8] = target: ADP-ribosylation factor GTPase-activating protein 1 (Rattus norvegicus, UniProt Q62848); assay: Fluorescence polarization-based biochemical high throughput dose response screening assay to identify inhibitors of ADP-ribosylation factor GTPase activating protein 1 (ARFGAP1).; type: functional
[9] = target: T2, Sentrin-specific protease 1 (Homo sapiens, UniProt Q9P0U3); assay: SENP1 catalytic domain blockers, concentration series – biochemical, kinetic FRET, dose response (AID 651697); type: functional; details: read-out: IC50_Mean
[10] = target: T3, Zinc finger protein mex-5 (Caenorhabditis elegans, UniProt Q9XUB2); assay: potency of MEX-5 RNA-binding blockers – biochemical, C. elegans, fluorescence polarization, dose response (AID 1960)
T3 sequence (Q9XUB2 whole entry): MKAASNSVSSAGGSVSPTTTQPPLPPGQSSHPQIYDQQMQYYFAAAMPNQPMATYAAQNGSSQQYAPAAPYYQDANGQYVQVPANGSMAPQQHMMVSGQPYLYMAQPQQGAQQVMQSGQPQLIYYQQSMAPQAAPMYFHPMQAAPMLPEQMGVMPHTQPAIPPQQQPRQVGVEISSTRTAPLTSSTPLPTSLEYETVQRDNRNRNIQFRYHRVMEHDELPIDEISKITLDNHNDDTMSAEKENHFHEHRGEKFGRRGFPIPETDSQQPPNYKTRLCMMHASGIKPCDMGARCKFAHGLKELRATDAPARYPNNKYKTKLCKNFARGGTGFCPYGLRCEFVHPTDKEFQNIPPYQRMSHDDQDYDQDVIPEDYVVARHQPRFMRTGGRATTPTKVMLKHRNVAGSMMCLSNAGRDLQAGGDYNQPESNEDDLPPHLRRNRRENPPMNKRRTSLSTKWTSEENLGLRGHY

[11] = target: T2, Sentrin-specific protease 1; assay: Dose response confirmation of small molecule inhibitors of the catalytic domain of the SUMO protease, SENP1 in a FRET assay.; type: functional; details: read-out: IC50_Mean
[12] = target: T4, RNA-binding protein pos-1 (Caenorhabditis elegans, UniProt G5EF15); assay: disruptors of C. elegans POS-1 RNA interaction – biochemical, fluorescence polarization, dose response (AID 1964);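 also: purified POS-1 fused to maltose binding protein made in E. coli; potency of compounds blocking POS-1 binding to fluorescent RNA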
T4 sequence (G5EF15 whole entry): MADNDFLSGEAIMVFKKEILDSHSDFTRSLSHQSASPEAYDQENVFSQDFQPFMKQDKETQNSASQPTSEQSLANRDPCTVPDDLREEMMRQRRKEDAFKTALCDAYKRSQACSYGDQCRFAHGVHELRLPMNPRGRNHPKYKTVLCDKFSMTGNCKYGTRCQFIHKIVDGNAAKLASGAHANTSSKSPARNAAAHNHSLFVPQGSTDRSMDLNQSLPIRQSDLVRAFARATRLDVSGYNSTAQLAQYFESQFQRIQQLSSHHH

[13] = loss of viability in HepG2 cells – cell-based, CellTiter-Glo, cherry-picked, cytotoxicity control for Shn3 inhibitor project, dose response (AID 624134); type: functional
[14] = reduction of Shn3 3'UTR-driven luciferase in osteoblasts – cell-based, Clone20 osteoblasts, firefly luciferase, cherry-picked, dose response (AID 624132); type: functional;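 also: firefly luciferase luminescence from reporter carrying the Shn3 3'UTR in osteoblasts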
[15] = general cell-killing toxicity readout – plate reader, dry powder samples, cytotoxicity control for PAX8 inhibitor project, dose response (AID 743021); type: functional, cell-based
[16] = non-specific 3'UTR reporter inhibition in Clone20-Shn3RL – cell-based, Renilla luciferase, cherry-picked, counter-screen for Shn3 inhibitor project, dose response (AID 624133); type: functional
Beta Lactamase = Beta Lactamase (Pseudomonas aeruginosa, UniProt Q932Y6); assay: BLA reporter interference, concentration series – BLA reporter cells, FRET fluorescence, artefact control for NOD2-RIPK2 interaction inhibitor project, dose response (AID 651552); type: functional, cell-based
[17] = Fluorescence-based cell-based high throughput dose response assay for inhibitors of the interaction of nucleotide-binding oligomerization domain containing 2 (NOD2) and the receptor-interacting serine-threonine kinase 2 (RIPK2).; type: functional; details: Homo sapiens
Paired box protein Pax-8 = Paired box protein Pax-8 (Homo sapiens, UniProt Q06710); assay: PAX8 transcriptional activity inhibition in RMG-I – RMG-I cells, luciferase, cherry-pick, dose response (AID 687027); type: functional, cell-based;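 also: luciferase reporter driven by Pax8 target thyroperoxidase promoter measured by SteadyGlo luminescence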
[18] = target: Dual specificity protein phosphatase 3 (Homo sapiens, UniProt P51452); assay: VHR phosphatase inhibition, dose response, selectivity assay for STEP inhibitor project, biochemical (AID 602374); type: functional; details: read-out: IC50_Mean
[19] = target: Tyrosine-protein phosphatase non-receptor type 5 (Homo sapiens, UniProt P54829); assay: PTPN5 enzyme inhibition – biochemical, fluorescence intensity, uHTS hits, confirmation (AID 602372); type: functional; details: read-out: IC50_Mean
[20] = target: T5, Tyrosine-protein phosphatase non-receptor type 22 (Homo sapiens, UniProt Q9Y2R2); assay: lymphoid phosphatase LYP inhibitors – biochemical, selectivity assay for STEP inhibitor project, dose response (AID 624241); type: functional
T5 sequence (Q9Y2R2 whole entry): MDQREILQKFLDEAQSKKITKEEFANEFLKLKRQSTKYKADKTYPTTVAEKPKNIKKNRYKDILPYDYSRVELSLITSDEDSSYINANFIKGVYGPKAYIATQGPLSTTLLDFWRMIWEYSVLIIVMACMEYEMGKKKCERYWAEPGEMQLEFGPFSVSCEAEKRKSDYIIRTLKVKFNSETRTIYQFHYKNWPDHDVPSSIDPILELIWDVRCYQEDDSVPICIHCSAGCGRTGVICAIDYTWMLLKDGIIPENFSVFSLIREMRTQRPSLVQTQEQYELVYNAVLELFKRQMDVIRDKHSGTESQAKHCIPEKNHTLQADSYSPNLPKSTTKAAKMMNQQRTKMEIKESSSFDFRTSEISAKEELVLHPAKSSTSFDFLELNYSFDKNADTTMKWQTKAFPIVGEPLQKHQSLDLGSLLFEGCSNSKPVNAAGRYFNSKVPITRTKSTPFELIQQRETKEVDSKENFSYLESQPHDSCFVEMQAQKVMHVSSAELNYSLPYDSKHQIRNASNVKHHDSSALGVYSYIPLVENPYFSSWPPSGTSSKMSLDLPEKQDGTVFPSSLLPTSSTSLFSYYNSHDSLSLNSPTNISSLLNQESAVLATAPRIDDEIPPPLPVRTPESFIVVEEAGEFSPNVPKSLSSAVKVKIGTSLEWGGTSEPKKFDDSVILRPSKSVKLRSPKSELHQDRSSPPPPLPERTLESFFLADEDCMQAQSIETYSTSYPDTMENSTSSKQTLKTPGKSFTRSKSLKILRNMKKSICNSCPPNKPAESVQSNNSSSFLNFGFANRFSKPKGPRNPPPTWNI

[21] = target: Tyrosine-protein phosphatase non-receptor type 11 (Homo sapiens, UniProt Q06124); assay: PTPN11 enzyme inhibitors – biochemical, selectivity assay for STEP inhibitor project, dose response (AID 602367); type: functional; details: read-out: IC50_Mean
[22] = target: T6, Sentrin-specific protease 8 (Homo sapiens, UniProt Q96LD8); type: functional
T6 sequence (Q96LD8 whole entry): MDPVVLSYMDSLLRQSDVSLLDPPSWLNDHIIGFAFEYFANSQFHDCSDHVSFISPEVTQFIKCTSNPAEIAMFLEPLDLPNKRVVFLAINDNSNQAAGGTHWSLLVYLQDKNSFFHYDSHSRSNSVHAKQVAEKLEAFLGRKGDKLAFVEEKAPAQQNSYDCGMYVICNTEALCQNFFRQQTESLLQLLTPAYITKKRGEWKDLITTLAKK

[23] = target: T6, Sentrin-specific protease 8; type: functional; remark: listed apart in the source
Caspase-3 = target: T7, Caspase-3 (Homo sapiens, UniProt P42574); assay: Dose-response confirmation of uHTS inhibitor hits of Sentrin-Specific Protease 8 in a Caspase-3 Fluorescence assay.; type: functional
T7 sequence (P42574 whole entry): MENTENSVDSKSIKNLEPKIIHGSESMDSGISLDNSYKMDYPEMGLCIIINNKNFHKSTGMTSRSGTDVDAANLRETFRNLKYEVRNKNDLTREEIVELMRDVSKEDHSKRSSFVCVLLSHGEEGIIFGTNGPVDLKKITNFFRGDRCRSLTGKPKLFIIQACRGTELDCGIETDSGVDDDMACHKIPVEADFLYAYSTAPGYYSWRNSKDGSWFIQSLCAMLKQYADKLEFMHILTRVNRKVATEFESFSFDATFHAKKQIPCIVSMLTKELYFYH

T2 sequence (Q9P0U3 whole entry, the tested form may be a part): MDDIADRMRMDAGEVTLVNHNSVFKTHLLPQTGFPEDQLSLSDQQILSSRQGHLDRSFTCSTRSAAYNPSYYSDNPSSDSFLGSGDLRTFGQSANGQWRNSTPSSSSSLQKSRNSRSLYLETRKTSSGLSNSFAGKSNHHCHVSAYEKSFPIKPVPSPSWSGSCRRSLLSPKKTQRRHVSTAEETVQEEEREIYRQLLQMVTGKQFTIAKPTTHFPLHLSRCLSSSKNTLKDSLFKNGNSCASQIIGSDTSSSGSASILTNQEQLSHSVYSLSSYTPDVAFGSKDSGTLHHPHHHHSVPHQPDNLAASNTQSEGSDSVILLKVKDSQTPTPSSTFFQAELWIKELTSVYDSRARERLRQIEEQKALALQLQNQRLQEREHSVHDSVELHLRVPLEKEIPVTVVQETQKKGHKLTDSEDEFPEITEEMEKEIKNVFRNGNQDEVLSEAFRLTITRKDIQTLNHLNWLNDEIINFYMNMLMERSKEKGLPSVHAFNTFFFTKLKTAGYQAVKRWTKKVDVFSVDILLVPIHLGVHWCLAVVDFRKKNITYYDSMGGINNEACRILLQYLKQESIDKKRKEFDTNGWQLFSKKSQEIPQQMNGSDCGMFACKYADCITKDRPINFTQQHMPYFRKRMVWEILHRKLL
Tyrosine-protein phosphatase non-receptor type 11, sequence (Q06124 whole entry): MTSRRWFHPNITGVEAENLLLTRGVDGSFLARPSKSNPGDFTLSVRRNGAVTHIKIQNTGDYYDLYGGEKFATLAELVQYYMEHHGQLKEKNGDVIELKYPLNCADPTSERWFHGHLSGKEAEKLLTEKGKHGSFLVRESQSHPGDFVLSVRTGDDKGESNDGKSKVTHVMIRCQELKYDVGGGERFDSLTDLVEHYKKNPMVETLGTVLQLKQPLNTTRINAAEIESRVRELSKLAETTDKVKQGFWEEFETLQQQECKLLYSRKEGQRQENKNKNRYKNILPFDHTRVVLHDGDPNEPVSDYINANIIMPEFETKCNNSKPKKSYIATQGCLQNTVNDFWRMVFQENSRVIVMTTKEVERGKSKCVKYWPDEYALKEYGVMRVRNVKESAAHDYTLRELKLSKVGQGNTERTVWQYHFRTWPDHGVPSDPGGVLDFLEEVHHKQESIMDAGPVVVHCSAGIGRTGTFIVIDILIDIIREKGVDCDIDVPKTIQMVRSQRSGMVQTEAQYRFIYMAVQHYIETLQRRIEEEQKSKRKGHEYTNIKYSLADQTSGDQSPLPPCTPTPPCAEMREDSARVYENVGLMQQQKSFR
Potassium voltage-gated channel subfamily KQT member 2, sequence (O88943 whole entry, the tested form may be a part): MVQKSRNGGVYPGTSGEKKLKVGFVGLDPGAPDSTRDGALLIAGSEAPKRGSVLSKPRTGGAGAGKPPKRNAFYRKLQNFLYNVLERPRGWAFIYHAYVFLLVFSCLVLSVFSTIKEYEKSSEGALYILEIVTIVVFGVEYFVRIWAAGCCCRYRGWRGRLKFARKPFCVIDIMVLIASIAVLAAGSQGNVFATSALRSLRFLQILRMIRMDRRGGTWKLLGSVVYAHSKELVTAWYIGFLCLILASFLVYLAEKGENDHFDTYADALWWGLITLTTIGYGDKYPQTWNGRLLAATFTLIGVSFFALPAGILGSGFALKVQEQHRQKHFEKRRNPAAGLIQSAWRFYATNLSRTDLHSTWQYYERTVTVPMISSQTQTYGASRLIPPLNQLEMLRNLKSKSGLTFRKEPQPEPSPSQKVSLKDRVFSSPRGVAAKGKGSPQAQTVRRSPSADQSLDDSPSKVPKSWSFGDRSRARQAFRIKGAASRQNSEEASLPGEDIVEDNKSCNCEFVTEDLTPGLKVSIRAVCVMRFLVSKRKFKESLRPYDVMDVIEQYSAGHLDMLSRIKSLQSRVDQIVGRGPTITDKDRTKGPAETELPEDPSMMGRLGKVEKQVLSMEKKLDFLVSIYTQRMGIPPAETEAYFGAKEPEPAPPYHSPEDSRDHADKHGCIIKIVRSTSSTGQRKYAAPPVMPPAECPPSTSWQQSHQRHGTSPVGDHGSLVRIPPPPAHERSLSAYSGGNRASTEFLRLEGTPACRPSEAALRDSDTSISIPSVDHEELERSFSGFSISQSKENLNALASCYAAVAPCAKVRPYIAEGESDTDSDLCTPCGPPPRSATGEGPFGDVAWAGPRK
Nuclear receptor subfamily 5 group A member 2, sequence (O00482 whole entry): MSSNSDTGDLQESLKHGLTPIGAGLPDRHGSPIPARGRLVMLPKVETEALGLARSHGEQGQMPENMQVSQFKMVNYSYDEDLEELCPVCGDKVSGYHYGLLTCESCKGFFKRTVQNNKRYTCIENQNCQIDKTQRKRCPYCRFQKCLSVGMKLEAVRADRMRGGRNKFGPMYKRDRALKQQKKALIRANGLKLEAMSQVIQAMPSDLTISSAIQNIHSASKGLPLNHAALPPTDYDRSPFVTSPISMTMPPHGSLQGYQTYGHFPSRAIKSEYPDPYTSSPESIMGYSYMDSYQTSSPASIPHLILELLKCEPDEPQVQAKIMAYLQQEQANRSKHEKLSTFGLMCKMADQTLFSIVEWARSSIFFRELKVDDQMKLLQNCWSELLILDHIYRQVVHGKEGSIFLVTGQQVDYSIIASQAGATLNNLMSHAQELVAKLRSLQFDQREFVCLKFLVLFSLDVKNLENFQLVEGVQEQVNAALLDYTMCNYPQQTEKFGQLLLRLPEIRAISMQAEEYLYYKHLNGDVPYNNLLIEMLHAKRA
Photoreceptor-specific nuclear receptor, sequence (Q9Y5X4 whole entry, the tested form may be a part): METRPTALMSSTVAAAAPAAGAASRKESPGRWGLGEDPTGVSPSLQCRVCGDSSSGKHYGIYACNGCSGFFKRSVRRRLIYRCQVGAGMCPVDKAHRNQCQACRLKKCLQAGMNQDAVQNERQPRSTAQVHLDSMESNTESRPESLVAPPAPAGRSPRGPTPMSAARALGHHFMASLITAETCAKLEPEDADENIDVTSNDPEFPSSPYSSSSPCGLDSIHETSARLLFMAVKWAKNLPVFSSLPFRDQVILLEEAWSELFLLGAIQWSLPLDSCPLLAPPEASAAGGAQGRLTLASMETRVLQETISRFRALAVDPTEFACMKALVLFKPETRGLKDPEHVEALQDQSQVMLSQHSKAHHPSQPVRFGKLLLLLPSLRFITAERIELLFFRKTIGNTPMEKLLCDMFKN
Beta Lactamase, sequence (Q932Y6 whole entry, the tested form may be a part): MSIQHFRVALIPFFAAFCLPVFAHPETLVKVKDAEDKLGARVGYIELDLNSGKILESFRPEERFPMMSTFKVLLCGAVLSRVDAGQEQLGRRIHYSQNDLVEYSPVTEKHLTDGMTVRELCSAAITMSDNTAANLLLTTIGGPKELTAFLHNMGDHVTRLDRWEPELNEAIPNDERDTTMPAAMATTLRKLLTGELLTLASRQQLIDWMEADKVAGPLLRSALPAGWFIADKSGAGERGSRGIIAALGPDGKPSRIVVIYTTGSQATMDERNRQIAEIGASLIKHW
Paired box protein Pax-8, sequence (Q06710 whole entry): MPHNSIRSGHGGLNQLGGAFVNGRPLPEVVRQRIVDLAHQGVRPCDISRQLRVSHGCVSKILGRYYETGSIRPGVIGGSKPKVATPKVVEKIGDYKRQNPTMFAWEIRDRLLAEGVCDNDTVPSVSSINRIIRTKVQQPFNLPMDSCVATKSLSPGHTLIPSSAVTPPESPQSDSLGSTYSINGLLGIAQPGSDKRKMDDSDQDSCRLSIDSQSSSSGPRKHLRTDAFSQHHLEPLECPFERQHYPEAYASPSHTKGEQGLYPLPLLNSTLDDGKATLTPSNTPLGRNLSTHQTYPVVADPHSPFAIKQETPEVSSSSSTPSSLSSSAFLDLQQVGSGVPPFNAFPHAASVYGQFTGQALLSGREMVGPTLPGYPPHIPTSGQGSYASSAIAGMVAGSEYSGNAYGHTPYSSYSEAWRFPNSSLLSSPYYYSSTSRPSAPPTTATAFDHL
Steroidogenic factor 1, sequence (Q13285 whole entry): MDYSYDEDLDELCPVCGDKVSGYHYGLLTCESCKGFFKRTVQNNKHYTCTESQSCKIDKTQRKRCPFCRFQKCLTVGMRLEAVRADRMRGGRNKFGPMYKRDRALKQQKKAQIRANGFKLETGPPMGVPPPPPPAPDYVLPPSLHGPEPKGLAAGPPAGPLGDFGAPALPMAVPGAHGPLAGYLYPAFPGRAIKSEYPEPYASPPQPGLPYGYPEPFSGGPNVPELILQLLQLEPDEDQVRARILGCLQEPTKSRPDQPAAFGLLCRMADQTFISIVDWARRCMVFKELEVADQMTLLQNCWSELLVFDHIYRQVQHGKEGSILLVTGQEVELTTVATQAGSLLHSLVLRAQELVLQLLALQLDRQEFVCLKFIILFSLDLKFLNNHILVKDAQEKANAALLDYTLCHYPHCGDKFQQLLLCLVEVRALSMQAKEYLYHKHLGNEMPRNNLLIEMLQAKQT
Dual specificity protein phosphatase 3, sequence (P51452 whole entry): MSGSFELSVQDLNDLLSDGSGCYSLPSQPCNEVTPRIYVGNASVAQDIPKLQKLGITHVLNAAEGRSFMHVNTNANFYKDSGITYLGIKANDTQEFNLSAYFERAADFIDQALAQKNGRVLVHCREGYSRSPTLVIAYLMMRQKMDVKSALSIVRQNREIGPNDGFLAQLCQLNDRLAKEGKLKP
ADP-ribosylation factor GTPase-activating protein 1, sequence (Q62848 whole entry, the tested form may be a part): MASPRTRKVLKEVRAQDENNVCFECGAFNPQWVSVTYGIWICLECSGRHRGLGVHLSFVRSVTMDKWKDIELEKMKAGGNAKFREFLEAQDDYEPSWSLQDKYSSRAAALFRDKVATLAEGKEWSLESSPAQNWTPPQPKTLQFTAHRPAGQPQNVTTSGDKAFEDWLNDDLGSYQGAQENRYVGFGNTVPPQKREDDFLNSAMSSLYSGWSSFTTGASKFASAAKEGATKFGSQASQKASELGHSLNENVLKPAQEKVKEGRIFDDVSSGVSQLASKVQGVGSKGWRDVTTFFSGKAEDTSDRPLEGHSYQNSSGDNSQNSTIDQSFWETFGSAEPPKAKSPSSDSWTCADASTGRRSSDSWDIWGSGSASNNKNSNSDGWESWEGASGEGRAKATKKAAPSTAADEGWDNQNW

## COc1ccc(OCCNC(=O)C2(C)CCN2Cc2ccc3ccccc3c2)cc1 (configuration not stated)
[1]
  IC50: 9.8 µM (active)
Steroidogenic factor 1
  IC50: 6.42 µM (active)
[2]
  IC50: 35.9 µM (inactive)

## CCOC(=O)C1=C(C)N=c2s/c(=C\c3ccc(OC(C)=O)c(OCC)c3)c(=O)n2C1/C=C/c1ccccc1 (configuration not stated)
[3]
  IC50: 6 µM (active)

## CCN(CC)S(=O)(=O)c1ccc(N2CCOCC2)c(NC(=S)NC(=O)c2ccco2)c1
[4]
  IC50: 0.824 µM (active)

## Cc1noc(C)c1S(=O)(=O)Nc1ccc(C(=O)N2CCN(c3ccc(Cl)cc3)CC2)cc1
[5]
  IC50: 11.7 µM (inactive)

## O=C(NCCCN1CCOCC1)C1CC(c2ccc(F)cc2)=NO1 (configuration not stated)
[6]
  EC50: > 100 µM (inactive)

## CCCC(NS(=O)(=O)c1ccc(Br)cc1)C(=O)O (configuration not stated)
[7]
  AC50: 1.68 µM (active)

## O/N=C\c1ccc2noc(-c3ccc(Cl)cc3)c2c1
[8]
  IC50: 50.7 µM (inactive)

## CC(C)CNC(=O)c1ccc(C2SCC(=O)N2Cc2ccccc2)cc1 (configuration not stated)
[9]
  IC50: 21.5 µM (inactive)
[10]
  EC50: > 300 µM (not active)
[11]
  IC50: 16.7 µM (active)
[12]
  EC50: > 300 µM (not active)

## C=C1C(=O)C23C(O)C1CCC2C12CCCC(C)(COC(C)=O)C1C(O)C3(O)OC2 (configuration not stated)
[13]
  AC50: 11.8 µM (active)
[14]
  AC50: 0.771 µM (active)
[15]
  AC50: 28.9 µM (active)
[16]
  AC50: 3.84 µM (active)
Beta Lactamase
  IC50: 22.1 µM (inactive)
[17]
  IC50: 1.19 µM (active)
Paired box protein Pax-8
  AC50: 1.86 µM (active)

## CN(C)c1ccc(C(=S)N2CCN(Cc3ccccc3)CC2)cc1
[18]
  IC50: 0.937 µM (active)
[19]
  IC50: 23.6 µM (inactive)
[20]
  IC50: 45.6 µM (inactive)
[21]
  IC50: 3.25 µM (active)

## COc1ccc2c(c1)Cc1sc(NC(=O)c3cccnc3)nc1-2
[22]
  IC50: 7.97 µM (active)
[23]
  IC50: 3.66 µM (active)
Caspase-3
  IC50: 29.2 µM (active)
